{"source": "patent US20240390386A1", "about": "“CDK8/19 INHIBITORS FOR PREVENTING DRUG RESISTANCE” (University of South Carolina, priority 2021, published 2024)", "key": {"panel of 468 kinases": {"tested_on": "panel of 468 kinases", "details": "2000 nM; cited from earlier work"}, "MDA-MB-468 xenografts": {"tested_on": "MDA-MB-468 xenografts", "details": "for effect on tumor growth: SNX631 350 ppm medicated food"}, "PEN027 PDX tumors": {"tested_on": "PEN027 PDX tumors", "details": "for effect on event-free survival (KM): 38 days of treatment, event: tumor 2,000 mm^3 or euthanasia; for effect on tumor volume: first 10 days of treatment, everolimus 2 mg/kg daily gavage, SNX631-6 500 ppm food"}, "[1]": {"details": "everolimus 2 mg/kg daily gavage"}}, "note": "Read-outs that look alike come from different tables or passages of the source.", "data": [{"smiles": "CN(C)C(=O)c1ccc(N2CCCN(c3ccnc4sc(C(N)=O)c(N)c34)CC2)cc1", "note": "[SNX631, 3-amino-4-(4-(4 (dimethylcarbamoyl)phenyl)-1,4-diazepan-1-yl)thieno[2,3-b]pyridine-2-carboxamide]", "values": [{"measurement": "S(10) S-score", "setting": "panel of 468 kinases", "value": "< 0.004"}, {"measurement": "S(35) S-score", "setting": "panel of 468 kinases", "value": "less than 0.02"}, {"measurement": "tolerability based on mouse body weights", "setting": "MDA-MB-468 xenografts; SNX631 350 ppm food, everolimus 2 mg/kg daily gavage", "value": "very well tolerated"}, {"measurement": "effect on tumor growth", "setting": "MDA-MB-468 xenografts; [1]", "value": "modest effect on tumor growth"}]}, {"smiles": "[2H]C([2H])([2H])N(C(=O)c1ccc(N2CCCN(c3ccnc4sc(C(N)=O)c(N)c34)CC2)cc1)C([2H])([2H])[2H]", "note": "[SNX631-6, 3-amino-4-(4-(4-(bis(methyl-d3)carbamoyl)phenyl)-1,4-diazepan-1-yl)thieno[2,3-b]pyridine-2-carboxamide]", "values": [{"measurement": "effect on event-free survival (KM)", "setting": "PEN027 PDX tumors", "value": "only a moderate effect on survival"}, {"measurement": "effect on tumor volume", "setting": "PEN027 PDX tumors", "value": "significantly inhibited tumor volume"}, {"measurement": "toxicity based on body weight changes", "setting": "PEN027 PDX tumors; surviving mice", "value": "lack of significant toxicity"}, {"measurement": "toxicity based on average mouse body weights", "setting": "PEN061 PDX TNBC model; SNX631-6 350 ppm food, everolimus 3 mg/kg daily gavage", "value": "lack of significant toxicity"}, {"measurement": "effect on tumor growth", "setting": "PEN061 PDX TNBC model; after 63 days of treatment, SNX631-6 350 ppm food, everolimus 3 mg/kg daily gavage", "value": "strongly inhibited tumor growth"}]}, {"smiles": "CO[C@H]1C[C@@H]2CC[C@@H](C)[C@@](O)(O2)C(=O)C(=O)N2CCCC[C@H]2C(=O)O[C@H]([C@H](C)C[C@@H]2CC[C@@H](OCCO)[C@H](OC)C2)CC(=O)[C@H](C)/C=C(\\C)[C@@H](O)[C@@H](OC)C(=O)[C@H](C)C[C@H](C)/C=C/C=C/C=C/1C", "note": "[everolimus, reference compound]", "values": [{"measurement": "effect on event-free survival (KM)", "setting": "PEN027 PDX tumors", "value": "strong effect"}, {"measurement": "effect on tumor volume", "setting": "PEN027 PDX tumors", "value": "significantly inhibited tumor volume"}, {"measurement": "toxicity based on body weight changes", "setting": "PEN027 PDX tumors; mouse, in vivo", "value": "lack of significant toxicity"}, {"measurement": "development of resistance", "setting": "PEN061 PDX TNBC model; continued up to 158 days", "value": "many of the tumors treated with everolimus alone developed resistance"}, {"measurement": "development of in vivo resistance to everolimus", "setting": "MDA-MB-468 xenografts; 150 days of study, tumor volumes and KM event-free survival (event: 500 mm^3)", "value": "all the tumors developed everolimus resistance"}, {"measurement": "effect on tumor growth", "setting": "MDA-MB-468 xenografts; [1]", "value": "fully suppressed xenograft growth"}, {"measurement": "duration of full suppression of xenograft growth before resistance", "setting": "MDA-MB-468 xenografts; [1]", "value": "~50 days of treatment"}]}]}
